From patent US20240010684A1, “MASP INHIBITORY COMPOUNDS AND USES THEREOF” (BAYER AKTIENGESELLSCHAFT, priority 2020, published 2024)
Where a SMILES comes first, the peptide text is derived from it. Bridges are numbered along the chain shown (N, C = ends). [ ]: non-standard residue; d: D form. ξ: configuration not given here. Oic = O=C(O)[C@@H]1C[C@@H]2CCCC[C@@H]2N1; Trx = NC[C@H]1CC[C@H](C(=O)O)CC1; tBuAla = CC(C)(C)C[C@H](N)C(=O)O; Pen = CC(C)(S)[C@H](N)C(=O)O; ξIle = CC[C@H](C)C(N)C(=O)O; NMeC = CN[C@@H](CS)C(=O)O; Orn = NCCC[C@H](N)C(=O)O; Dap = NC[C@H](N)C(=O)O; ξD = NC(CC(=O)O)C(=O)O; Ahx = NCCCCCC(=O)O

What was measured:
human MASP1 = human MASP1 (Homo sapiens (Human), UniProt P48740); assay: Biochemical human MASP1 assay (FRET substrate); details: Average IC50; recombinant human MASP1; read-out: human MASP1 IC50
In short: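 IC50 derived from % inhibition versus compound concentration, with fluorescence increase read at 320/420 nm after 60-120 min at 32 C. Enzyme: HEK293-secreted, His-tagged human MASP1 fragment 297-699 at 20 nM in HEPES pH 8,0 buffer with NaCl, CHAPS, glutathione; substrate ABZ-peptide-Lys(Dnp)-NH2 added as 20 μM solution.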

human MASP2 = human MASP2 (Homo sapiens (Human), UniProt O00187); assay: Biochemical human MASP2 assay (FRET substrate); details: Average IC50; recombinant human MASP2; read-out: human MASP2 IC50
In short: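 IC50 came from % inhibition across compound concentrations, with fluorescence (ex 340 nm, em 490 nm) read after 60-120 min at 32 C. Substrate was a DABCYL FRET peptide, added as a 60 μM solution, cleaved by HEK293-expressed, Ni-NTA-purified mature recombinant human MASP2.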

[1] = system: Human C3-DEPOSITION SERUM; assay: C3 deposition assay, human serum on mannan-coated plates; format: biochemical; details: Average IC50, read-out: Human C3-DEPOSITION SERUM IC50
Protocol: 3. C3 Deposition Assay (Human, Rat, Mouse, Dog, Pig))
The C3 deposition assay was conducted essentially as described (reference). Multiwell plates (Greiner-Nunc 384 Maxi Sorp #464718) were coated over night with Mannan from Saccharomyces cerevisiae (Sigma M7504, 10 μg/mL in 0.05 M carbonate-bicarbonate buffer, pH 9.6) at 4° C. Wells were washed three times with TBS and subsequently incubated for 2 hours with 50 μL of 1% bovine serum albumin (BSA) in Tris-buffered saline (TBS) at 37° C. in order to block non-specific binding. After this step and each of the following incubation steps wells were washed three times with C3 wash buffer (TBS; 0.05% Tween 20; 5 mM CaCl2). […] When appropriately developed the color reaction was stopped by addition of 25 μL of stop solution (Sigma S5814) and quantified on a photometer by measuring absorption at a wavelength of 450 nm. Antibodies were diluted in C3 wash buffer supplemented with 0.5% BSA.

human MASP2, sequence (O00187 other isoform, or with tags, fused parts or gaps): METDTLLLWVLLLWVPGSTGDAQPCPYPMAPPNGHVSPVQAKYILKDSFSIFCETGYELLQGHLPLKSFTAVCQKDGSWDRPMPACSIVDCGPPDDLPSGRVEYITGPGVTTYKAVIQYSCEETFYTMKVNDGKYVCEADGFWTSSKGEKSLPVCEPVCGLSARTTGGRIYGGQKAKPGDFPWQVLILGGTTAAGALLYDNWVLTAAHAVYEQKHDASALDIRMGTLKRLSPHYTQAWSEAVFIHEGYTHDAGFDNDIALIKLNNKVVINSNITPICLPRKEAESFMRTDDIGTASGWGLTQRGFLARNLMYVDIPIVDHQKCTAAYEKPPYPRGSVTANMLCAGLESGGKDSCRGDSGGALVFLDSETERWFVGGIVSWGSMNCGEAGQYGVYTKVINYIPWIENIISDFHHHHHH
human MASP1, sequence (P48740 other isoform, or with tags, fused parts or gaps): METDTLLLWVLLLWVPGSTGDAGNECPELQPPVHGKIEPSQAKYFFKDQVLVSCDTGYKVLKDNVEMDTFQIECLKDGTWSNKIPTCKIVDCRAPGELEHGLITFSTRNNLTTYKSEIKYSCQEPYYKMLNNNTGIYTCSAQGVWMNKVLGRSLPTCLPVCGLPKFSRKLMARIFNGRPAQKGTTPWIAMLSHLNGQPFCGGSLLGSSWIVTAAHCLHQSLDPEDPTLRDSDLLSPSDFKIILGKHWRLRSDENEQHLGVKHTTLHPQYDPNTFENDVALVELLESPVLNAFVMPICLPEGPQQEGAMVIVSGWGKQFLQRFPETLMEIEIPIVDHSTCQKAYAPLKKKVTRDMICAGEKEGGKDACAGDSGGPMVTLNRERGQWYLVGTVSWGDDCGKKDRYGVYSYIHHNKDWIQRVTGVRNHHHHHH

Row | SMILES | IC50 (human MASP1) [nM] | IC50 (human MASP2) [nM] | IC50 [1] [nM]
1 | CC[C@H](C)[C@@H]1NC(=O)[C@H](CN)NC(=O)[C@@H]2CCCN2C(=O)[C@H]([C@@H](C)CC)NC(=O)[C@H]2NC(=O)[C@H]([C@@H](C)CC)NC(=O)[C@@H]3CCCN3C(=O)[C@@H]3CCCN3C(=O)[C@H](CC(C)(C)C)NC(=O)[C@H](CO)NC(=O)[C@H](CCCNC(=N)N)NC(=O)[C@H](CO)NC(=O)[C@H](CSSC2(C)C)NC1=O [Example 55, N-{3-[(6S,9S,12S,15S,18R,21S,24S,26aS,32S,35R,38S,40aS,45aS)-24-(aminomethyl)-21,32,38-tri[(2S)-butan-2-yl]-6-(2,2-dimethylpropyl)-9,15-bis(hydroxymethyl)-46,46-dimethyl-5,8,11,14,17,20,23,26,31,34,37,40,45-tridecaoxotetratetracontahydro-1H-18,35-(methanodithiomethano)tripyrrolo[1,2-a:1′,2′-d:1″,2″-p][1,4,7,10,13,16,19,22,25,28,31,34,37]tridecaazacyclononatriacontin-12-yl]propyl}guanidine] (cyclo(CSRS[tBuAla]PPI[Pen]IP[Dap]I); disulfide 1-9) | 46 | 900 | 382
2 | CC[C@H](C)C1NC(=O)[C@@H]2CSSC[C@H](NC(=O)[C@H]([C@@H](C)CC)NC(=O)[C@H](C)NC(=O)[C@@H](N)CCCNC(=O)C[C@@H](C(N)=O)NC(=O)[C@@H]3CCCN3C1=O)C(=O)N[C@@H](CO)C(=O)N[C@@H](CCCNC(=N)N)C(=O)N[C@@H](CO)C(=O)N[C@@H](CC(C)(C)C)C(=O)N1CCC[C@H]1C(=O)N1CCC[C@H]1C(=O)N[C@@H]([C@@H](C)CC)C(=O)N2C (stereo partly drawn) [Example 44] (H-[Orn]AICSRS[tBuAla]PPI[NMeC][ξIle]PD-NH2; lactam 1-15; disulfide 4-12) | 4.7 | 230 | 23.7
3 | CC[C@H](C)[C@@H]1NC(=O)CNC(=O)CNC(=O)[C@H](C)NC(=O)[C@H](CC(=O)O)NC(=O)[C@@H]2CCCN2C(=O)[C@H]([C@@H](C)CC)NC(=O)[C@H]2NC(=O)[C@H]([C@@H](C)CC)NC(=O)[C@@H]3CCCN3C(=O)[C@@H]3CCCN3C(=O)[C@H](CC(C)(C)C)NC(=O)[C@H](CO)NC(=O)[C@H](CCCNC(=N)N)NC(=O)[C@H](CO)NC(=O)[C@H](CSSC2(C)C)NC1=O [Example 29] (cyclo(AGGICSRS[tBuAla]PPI[Pen]IPD); disulfide 5-13) | 8.6 | 68 | 84.6
4 | CC[C@H](C)[C@@H]1NC(=O)CNC(=O)[C@H]2CC[C@@H](CC2)CNC(=O)CNC(=O)C[C@@H](C(N)=O)NC(=O)[C@@H]2CCCN2C(=O)[C@H]([C@@H](C)CC)NC(=O)[C@@H]2CSSC[C@H](NC1=O)C(=O)N[C@@H](CO)C(=O)N[C@@H](CCCNC(=N)N)C(=O)N[C@@H](CO)C(=O)N[C@@H](CC(C)(C)C)C(=O)N1CCC[C@H]1C(=O)N1CCC[C@H]1C(=O)N[C@@H]([C@@H](C)CC)C(=O)N2C [Example 69, (1R,4S,10S,13S,21S,24S,30S,33R,36S,39S,42S,45S,51S,57S,60S)-4,30,60-tri[(2S)-butan-2-yl]-39-(3-carbamimidamidopropyl)-45-(2,2-dimethylpropyl)-36,42-bis(hydroxymethyl)-62-methyl-2,5,11,15,18,25,28,31,34,37,40,43,46,52,58,61-hexadecaoxo-64,65-dithia-3,6,12,16,19,26,29,32,35,38,41,44,47,53,59,62-hexadecaazahexacyclo[31.29.4.2^21,240.0^6,100.0^47,510.0^53,57]octahexacontane-13-carboxamide] (G[Trx]GICSRS[tBuAla]PPI[NMeC]IPD-NH2; disulfide 5-13; lactam N-16) | 20 | 190 | 364

Further compounds by falling IC50 (human MASP1), results first:

Row | IC50 (human MASP1) [nM] | IC50 (human MASP2) [nM] | IC50 [1] [nM] | SMILES
5 | 56 | 89 | 228 | CC[C@H](C)[C@@H]1NC(=O)[C@H](C)NC(=O)CCCCCNC(=O)[C@H](CC(=O)O)NC(=O)[C@@H]2CCCN2C(=O)[C@H]([C@@H](C)CC)NC(=O)[C@@H]2CSSC[C@H](NC1=O)C(=O)N[C@@H](CO)C(=O)N[C@@H](CCCNC(=N)N)C(=O)N[C@@H](CO)C(=O)N[C@@H](CC(C)(C)C)C(=O)N1CCC[C@H]1C(=O)N1CCC[C@H]1C(=O)N[C@@H]([C@@H](C)CC)C(=O)N2 [Example 46] (cyclo(AICSRS[tBuAla]PPICIPD[Ahx]); disulfide 3-11)
6 | 46 | 700 | 78.6 | CC[C@H](C)[C@@H]1NC(=O)[C@H](CN)NC(=O)[C@@H]2CCCN2C(=O)[C@H]([C@@H](C)CC)NC(=O)[C@H]2NC(=O)[C@H]([C@@H](C)CC)NC(=O)[C@@H]3C[C@@H]4CCCC[C@@H]4N3C(=O)[C@H]3CCCN3C(=O)[C@H](CC(C)C)NC(=O)[C@H](CO)NC(=O)[C@H](CCCNC(=N)N)NC(=O)[C@H](CO)NC(=O)[C@H](CSSC2(C)C)NC1=O [Example 87] (cyclo(CSRSL[dP][Oic]I[Pen]IP[Dap]I); disulfide 1-9)
7 | 22 | 540 | 149 | CC[C@H](C)[C@@H]1NC(=O)CNC(=O)[C@H]2CC[C@@H](CC2)CNC(=O)CNC(=O)CC(C(N)=O)NC(=O)[C@@H]2CCCN2C(=O)[C@H]([C@@H](C)CC)NC(=O)[C@H]2NC(=O)[C@H]([C@@H](C)CC)NC(=O)[C@@H]3CCCN3C(=O)[C@@H]3CCCN3C(=O)[C@H](CC(C)(C)C)NC(=O)[C@H](CO)NC(=O)[C@H](CCCNC(=N)N)NC(=O)[C@H](CO)NC(=O)[C@H](CSSC2(C)C)NC1=O (stereo partly drawn) [Example 62, (1R,4S,10S,21S,24S,30S,33R,36S,39S,42S,45S,51S,57S,60S)-4,30,60-tri[(2S)-butan-2-yl]-39-(3-carbamimidamidopropyl)-45-(2,2-dimethylpropyl)-36,42-bis(hydroxymethyl)-63,63-dimethyl-2,5,11,15,18,25,28,31,34,37,40,43,46,52,58,61-hexadecaoxo-64,65-dithia-3,6,12,16,19,26,29,32,35,38,41,44,47,53,59,62-hexadecaazahexacyclo[31.29.4.2^21,240.0^6,100.0^47,510.0^53,57]octahexacontane-13-carboxamide] (G[Trx]GICSRS[tBuAla]PPI[Pen]IP[ξD]-NH2; disulfide 5-13; lactam N-16)
8 | 13 | 210 | 228 | CC[C@H](C)[C@@H]1NC(=O)[C@H](C)NC(=O)[C@@H](N)CSSC[C@@H](C(N)=O)NC(=O)[C@H](CC(=O)O)NC(=O)[C@@H]2CCCN2C(=O)[C@H]([C@@H](C)CC)NC(=O)[C@H]2NC(=O)[C@H]([C@@H](C)CC)NC(=O)[C@@H]3CCCN3C(=O)[C@@H]3CCCN3C(=O)[C@H](CC(C)(C)C)NC(=O)[C@H](CO)NC(=O)[C@H](CCCNC(=N)N)NC(=O)[C@H](CO)NC(=O)[C@H](CSSC2(C)C)NC1=O [Example 50] (H-CAICSRS[tBuAla]PPI[Pen]IPDC-NH2; disulfide 1-16, 4-12)
9 | 6.7 | 120 | 28.2 | CC[C@H](C)[C@@H]1NC(=O)[C@H](C)NC(=O)CCCCCNC(=O)C[C@@H](C(N)=O)NC(=O)[C@@H]2CCCN2C(=O)[C@H]([C@@H](C)CC)NC(=O)[C@H]2NC(=O)[C@H]([C@@H](C)CC)NC(=O)[C@@H]3C[C@@H]4CCCC[C@@H]4N3C(=O)[C@H]3CCCN3C(=O)[C@H](CC(C)C)NC(=O)[C@H](CO)NC(=O)[C@H](CCCNC(=N)N)NC(=O)[C@H](CO)NC(=O)[C@H](CSSC2(C)C)NC1=O [Example 43]
10 | 5 | 760 | 56.4 | CC[C@H](C)[C@@H]1NC(=O)[C@H](CN)NC(=O)[C@H](CN)NC(=O)[C@@H]2CCCN2C(=O)[C@H]([C@@H](C)CC)NC(=O)[C@H]2NC(=O)[C@H]([C@@H](C)CC)NC(=O)[C@@H]3CCCN3C(=O)[C@@H]3CCCN3C(=O)[C@H](CC(C)(C)C)NC(=O)[C@H](CO)NC(=O)[C@H](CCCNC(=N)N)NC(=O)[C@H](CO)NC(=O)[C@H](CSSC2(C)C)NC1=O [Example 97]
11 | 3.1 | 310 | 23.4 | CC[C@H](C)[C@@H]1NC(=O)[C@H](C)NC(=O)[C@@H](N)CCCNC(=O)C[C@@H](C(N)=O)NC(=O)[C@@H]2CCCN2C(=O)[C@H]([C@@H](C)CC)NC(=O)[C@H]2NC(=O)[C@H]([C@@H](C)CC)NC(=O)[C@@H]3CCCN3C(=O)[C@@H]3CCCN3C(=O)[C@H](CC(C)(C)C)NC(=O)[C@H](CO)NC(=O)[C@H](CCCNC(=N)N)NC(=O)[C@H](CO)NC(=O)[C@H](CSSC2(C)C)NC1=O [Example 61] (H-[Orn]AICSRS[tBuAla]PPI[Pen]IPD-NH2; lactam 1-15; disulfide 4-12)
